Reference: patent US12570647B2 (Saint Louis University, priority 2021, dated 2026)
Values after ≈ are worked out from the molar mass of the structure shown.

tested on: S. aureus ATCC25923; test: S. aureus MIC80 determination, broth microdilution (CLSI) in CAMHB; assay type: cell-based; conditions: Staphylococcus aureus, ATCC25923; Table 1; S. aureus ATCC 25923; growth inhibition ≥80% vs vehicle, 16-24 h; read-out: ATCC 25923 MIC80
Experimental: S. Aureus MIC80 determinations in S. aureus ATCC25923 or in multidrug-resistant strains AR215, AR217 and AR255. MIC80's were determined by the broth microdilution method recommended by the Clinical and Laboratory Standards Institute (CLSI) in Cation-adjusted Mueller-Hinton broth (CAMHB). (Cao et al., 2018). In the preliminary screening, three compound concentrations were used: 5.8, 20.4, and 71.4 μM; for quantitative MIC80 measurements, a 1.5-fold dilution series of the compounds was prepared in CAMHB. Overnight bacterial culture was added to the diluted compounds in a 96-well plate after adjusting the bacterial concentration to achieve a 5×10^5 CFU/mL final concentration. After 16-24 h incubation at 35±2° C., the plates were read at 600 nm in a microplate reader. The MIC80 was defined as the concentration of an antibacterial agent that inhibited bacteria growth ≥80% compared to vehicle-treated control cultures. All values were determined at least twice independently, and the average number is reported.

Row | SMILES | MIC80 [µM]
1 | Cc1cc(Cl)cc2sc(NCCCn3ccnc3)nc12 [Example 1, N-(3-(1H-imidazol-1-yl)propyl)-6-chloro-4-methylbenzo[d]thiazol-2-amine] | 19.8 (≈ 6.08 µg/mL)
2 | Cc1cc(Cl)cc2sc(N(CCCn3ccnc3)C(=O)c3ccco3)nc12 [Example 2, N-(3-(1H-imidazol-1-yl)propyl)-N-(6-chloro-4-methylbenzo[d]thiazol-2-yl)furan-2-carboxamide] | 1.7 (≈ 0.682 µg/mL)
3 | Cc1cc(Cl)cc2sc(N(CCCn3ccnc3)C(=O)c3ccccc3)nc12 [Example 3, N-(3-(1H-imidazol-1-yl)propyl)-N-(6-chloro-4-methylbenzo[d]thiazol-2-yl)benzamide] | 3.9 (≈ 1.6 µg/mL)
4 | Cc1cc(Cl)cc2sc(N(CCCn3ccnc3)C(=O)c3ccccn3)nc12 [Example 5, N-(3-(1H-imidazol-1-yl)propyl)-N-(6-chloro-4-methylbenzo[d]thiazol-2-yl)picolinamide] | 8.8 (≈ 3.62 µg/mL)
5 | Cc1cc(Cl)cc2sc(N(CCCn3ccnc3)C(=O)/C=C/c3ccco3)nc12 [Example 6, (E)-N-(3-(1H-imidazol-1-yl)propyl)-N-(6-chloro-4-methylbenzo[d]thiazol-2-yl)-3-(furan-2-yl)acrylamide] | 2.6 (≈ 1.11 µg/mL)
6 | Cc1cc(Cl)cc2sc(N(CCCn3ccnc3)C(=O)c3ccoc3)nc12 [Example 7, N-(3-(1H-imidazol-1-yl)propyl)-N-(6-chloro-4-methylbenzo[d]thiazol-2-yl)furan-3-carboxamide] | 2.6 (≈ 1.04 µg/mL)
7 | Cc1cc(Cl)cc2sc(N(CCCn3ccnc3)C(=O)C3CCCC3)nc12 [Example 8, N-(3-(1H-imidazol-1-yl)propyl)-N-(6-chloro-4-methylbenzo[d]thiazol-2-yl)cyclopentanecarboxamide] | 3.9 (≈ 1.57 µg/mL)
8 | Cc1ccc(C(=O)N(CCCn2ccnc2)c2nc3c(C)cc(Cl)cc3s2)s1 [Example 9, N-(3-(1H-imidazol-1-yl)propyl)-N-(6-chloro-4-methylbenzo[d]thiazol-2-yl)-5-methylthiophene-2-carboxamide] | 2.6 (≈ 1.12 µg/mL)
9 | Cc1cc(Cl)cc2sc(N(CCCn3ccnc3)C(=O)C3CC3)nc12 [Example 10, N-(3-(1H-imidazol-1-yl)propyl)-N-(6-chloro-4-methylbenzo[d]thiazol-2-yl)cyclopropanecarboxamide] | 1.7 (≈ 0.637 µg/mL)
10 | Cc1cc(Cl)cc2sc(N(CCCn3ccnc3)C(=O)C(C)C)nc12 [Example 11, N-(3-(1H-imidazol-1-yl)propyl)-N-(6-chloro-4-methylbenzo[d]thiazol-2-yl)isobutyramide] | 2.7 (≈ 1.02 µg/mL)
11 | Cc1cc(Cl)cc2sc(N(CCCn3ccnc3)C(=O)c3ccc(C(=O)O)cc3)nc12 [Example 12, 4-((3-(1H-imidazol-1-yl)propyl)(6-chloro-4-methylbenzo[d]thiazol-2-yl)carbamoyl)benzoic acid] | > 100
12 | Cc1cc(Cl)cc2sc(N(CCCn3ccnc3)C(=O)c3cc4ccccc4o3)nc12 [Example 13, N-(3-(1H-imidazol-1-yl)propyl)-N-(6-chloro-4-methylbenzo[d]thiazol-2-yl)benzofuran-2-carboxamide] | 8.8 (≈ 3.97 µg/mL)
13 | Cc1cc(Cl)cc2sc(N(CCCn3ccnc3)C(=O)C3CCCO3)nc12 (centres unmarked) [Example 14, N-(3-(1H-imidazol-1-yl)propyl)-N-(6-chloro-4-methylbenzo[d]thiazol-2-yl)tetrahydrofuran-2-carboxamide] | 29.6 (≈ 12 µg/mL)
14 | Cc1cc(C(=O)N(CCCn2ccnc2)c2nc3c(C)cc(Cl)cc3s2)oc1C [Example 16, N-(3-(1H-imidazol-1-yl)propyl)-N-(6-chloro-4-methylbenzo[d]thiazol-2-yl)-4,5-dimethylfuran-2-carboxamide] | 3.9 (≈ 1.67 µg/mL)
15 | Cc1cc(Cl)cc2sc(N(CCCn3ccnc3)C(=O)C3CCC3)nc12 [Example 17, N-(3-(1H-imidazol-1-yl)propyl)-N-(6-chloro-4-methylbenzo[d]thiazol-2-yl)cyclobutanecarboxamide] | 2.6 (≈ 1.01 µg/mL)
16 | Cc1cc(Cl)cc2sc(N(CCCn3ccnc3)C(=O)C3(C)CC3)nc12 [Example 18, N-(3-(1H-imidazol-1-yl)propyl)-N-(6-chloro-4-methylbenzo[d]thiazol-2-yl)-1-methylcyclopropanecarboxamide] | 5.9 (≈ 2.29 µg/mL)
17 | Cc1cc(Cl)cc2sc(N3CCNCC3)nc12 [Example 30, 6-chloro-4-methyl-2-(piperazin-1-yl)-1,3-benzothiazole] | 100 (≈ 26.8 µg/mL)

Continued, values first:

Row | MIC80 [µM] | SMILES
18 | 1.3 (≈ 0.52 µg/mL) | Cc1cc(Cl)cc2sc(N(CCCn3ccnc3)C(=O)c3ccc[nH]3)nc12 [Example 19, N-(3-(1H-imidazol-1-yl)propyl)-N-(6-chloro-4-methylbenzo[d]thiazol-2-yl)-1H-pyrrole-2-carboxamide]
19 | 2.9 (≈ 1.34 µg/mL) | CSCc1ccc(C(=O)N(CCCn2ccnc2)c2nc3c(C)cc(Cl)cc3s2)o1 [Example 20, N-(3-(1H-imidazol-1-yl)propyl)-N-(6-chloro-4-methylbenzo[d]thiazol-2-yl)-5-((methylthio)methyl)furan-2-carboxamide]
20 | 14.8 (≈ 8.2 µg/mL) | Cc1cc(Cl)cc2sc(N(CCCn3ccnc3)C(=O)[C@H](Cc3ccccc3)NC(=O)OC(C)(C)C)nc12 [Example 21, (S)-tert-butyl (1-((3-(1H-imidazol-1-yl)propyl)(6-chloro-4-methylbenzo[d]thiazol-2-yl)amino)-1-oxo-3-phenylpropan-2-yl)carbamate]
21 | 3.9 (≈ 1.77 µg/mL) | Cc1cc(Cl)cc2sc(N(CCCn3ccnc3)S(=O)(=O)c3cccs3)nc12 [Example 22, N-(3-(1H-imidazol-1-yl)propyl)-N-(6-chloro-4-methylbenzo[d]thiazol-2-yl)thiophene-2-sulfonamide]
22 | 3.9 (≈ 1.74 µg/mL) | Cc1cc(Cl)cc2sc(N(CCCn3ccnc3)S(=O)(=O)c3ccccc3)nc12 [Example 23, N-(3-(1H-imidazol-1-yl)propyl)-N-(6-chloro-4-methylbenzo[d]thiazol-2-yl)benzenesulfonamide]
23 | 13.2 (≈ 5.98 µg/mL) | Cc1cc(Cl)cc2sc(N(CCCn3ccnc3)S(=O)(=O)C3CCCCC3)nc12 [Example 24, N-(3-(1H-imidazol-1-yl)propyl)-N-(6-chloro-4-methylbenzo[d]thiazol-2-yl)cyclohexanesulfonamide]
24 | 8.8 (≈ 3.85 µg/mL) | Cc1cc(Cl)cc2sc(N(CCCn3ccnc3)S(=O)(=O)c3ccco3)nc12 [Example 25, N-(3-(1H-imidazol-1-yl)propyl)-N-(6-chloro-4-methylbenzo[d]thiazol-2-yl)furan-2-sulfonamide]
25 | 3.9 (≈ 1.55 µg/mL) | Cc1cc(Cl)cc2sc(N(CCCn3ccnc3)Cc3ccccc3)nc12 [Example 26, N-(3-(1H-imidazol-1-yl)propyl)-N-benzyl-6-chloro-4-methylbenzo[d]thiazol-2-amine]
26 | 6.6 (≈ 2.38 µg/mL) | Cc1cc(Cl)cc2sc(N(CCCn3ccnc3)CC3CC3)nc12 [Example 27, N-(3-(1H-imidazol-1-yl)propyl)-6-chloro-N-(cyclopropylmethyl)-4-methylbenzo[d]thiazol-2-amine]
27 | 5.9 (≈ 2.45 µg/mL) | Cc1cc(Cl)cc2sc(N(CCCn3ccnc3)CCCn3ccnc3)nc12 [Example 28, N,N-bis(3-(1H-imidazol-1-yl)propyl)-6-chloro-4-methylbenzo[d]thiazol-2-amine]
28 | 13.2 | Cc1cc(Cl)cc2sc(N(CCCn3cc[n+](C)c3)C(=O)c3ccco3)nc12 [Example 29, 1-(3-(N-(6-chloro-4-methylbenzo[d]thiazol-2-yl)furan-2-carboxamido)propyl)-3-methyl-1H-imidazol-3-ium]
29 | > 100 | CC(=O)N1CCN(c2nc3c(C)cc(Cl)cc3s2)CC1 [Example 31, 1-(4-(6-chloro-4-methylbenzo[d]thiazol-2-yl)piperazin-1-yl)ethan-1-one]
